Reference: patent US7427599B2, “Biologically active peptide comprising Tyrosyl-seryl-valine(YSV)” (CMS Peptides Patent Holding Company Limited, priority 2003, dated 2008)
Marks after values point to notes of the source that are not given here.

Tests used:
melanoma B16 = assay: Growth of C57BL/6 mice-transplanted melanoma B16; assay type: in vivo; settings: 20 mg/kg/day intraperitoneal, 20 consecutive days
Method: B16 cells were maintained in RPMI-1640 medium with 10% FBS at 37° C., 5% CO2. Mouse B16 melanoma culture at log phase was adjusted to 2.5×10^6/ml with Hank's solution. 0.2 ml of this was subcutaneously injected to the right axilla of healthy C57 BL/6 mice to form the melanoma mice model. […] From the next day after the tumor implantation, the general conditions of the mice and the growth of the tumor were observed daily. On the next day after the last test substance administration, the tumors were extirpated and the weights of tumor were measured. […] The results were presented as arithmetic mean ±SD. Statistical analysis was performed using the ANOVA test of the SPSS software.

[1] = tested on: A549 human pulmonary carcinoma; assay: A549 human pulmonary carcinoma xenograft in nude mice; assay type: in vivo, BALB/c (nu/nu) athymic nude mice; settings: 20 mg/kg/day i.p., 40 days
Method: Healthy BALB/c (nu/nu) athymic nude mice (SPF, 4-5 weeks old, weighting 18-22 g) were purchased from Shanghai Tumor Academe of China Medical Academy of Science. In the first experiment, female was used. In the second experiment, male was used.
Select A549 human pulmonary carcinoma xenografts of diameter longer than 1 cm with good growth on nude mice. Aseptically excise the tumor mass, cut into pieces of 2-4 mm^3 and submerged in RPMI1640. Pulmonary carcinoma nude mice model was prepared by transplanting the tumor mass hypodermally to the back of healthy nude mice near to the neck via an incision at the ventral thorax.
The nude mice bearing A549 xenografts were randomly divided into groups of: saline control (0.2 ml/day), YSV groups of different dosages, and Cy control (0.2 mg/kg/day). The test substances were dissolved in 0.2 ml saline and administered intraperitoneally to the mice starting from the day after the transplantation, once per day for 40 consecutive days.
The general condition of the mice was observed daily. The mice were weighed every 3-4 days and the volume of the tumor was measured:
V=(⅙)πXYZ, where X, Y, and Z were the diameters of the tumor on the 3 planes.
The day after the last injection, the tumors were excised, weighted, and the volume measured. The tumors were examined for signs of necrosis. Tumor inhibition index=(average tumor weight of saline group−average tumor weight of test group)/average tumor weight of saline group×100%)
Statistical analysis was performed with SPSS software using one-way ANOVA analysis.

SMILES: O=P1(N(CCCl)CCCl)NCCCO1 (centres unmarked) [Cyclophosphamide, reference compound]
- The Inhibition rate (%) (melanoma B16): 81.5%
- Tumor weight (melanoma B16; saline 2.64 ± 0.68): 0.49 ± 0.68 g
- Tumor inhibition index (%) ([1]; experiment 1, female nude mice): 39.8%
- Tumor volume (cm^3) ([1]; experiment 1, female nude mice, saline 1.87 ± 1.10): 1.02 ± 0.47* cm^3
- Tumor weight ([1]; experiment 1, female nude mice, saline 2.49 ± 1.02): 1.50 ± 0.75 g
- Tumor inhibition index (%) ([1]; experiment 2, male nude mice): 51.9%
- Tumor volume (cm^3) ([1]; experiment 2, male nude mice, saline 1.34 ± 0.69): 0.49 ± 0.34* cm^3
- Tumor weight ([1]; experiment 2, male nude mice, saline 1.51 ± 0.79): 0.73 ± 0.42 g
